In data set [1] the test system is Swine subcutaneous adipose tissue-derived mesenchymal stem cells (Pig AT-MSCs). Description: Microscopic observation of cell aggregate mass and cell floating state. The format is cell-based. The following applies: from dilution series of ET-K with saline; Pig AT-MSCs P2; 25° C. How it is done: The suspension was left standing at each temperature (0, 25, and 37° C.), pipetted several times with 20 μL PIPETMAN 0, 30, 60, 120 and 240 min later, and 10 μL thereof was transferred to a dish. A stereomicroscope was focused on the lowermost surface of the suspension on the dish, and observation was performed. The cells forming a mass with adjacent cells under the microscope were taken as cell aggregate mass. The cell aggregate mass was confirmed to be obviously moving as a mass by shaking the dish on the stage of the microscope. The swine subcutaneous adipose tissue-derived mesenchymal stem cells prepared in Example 1 were passaged twice and the obtained cells (Pig AT-MSCs P2) were plated on three 10 cm-dishes. The cells were washed three times with 5 ml PBS(−) per 10 cm dish, and detached by treating with 1 ml trypsin-EDTA (0.25% trypsin, 1 mM EDTA·4Na) for 20 sec into a single-cell state. […] Thereafter, in the same manner as in Example 1, the survival rate was calculated and the presence or absence of the cell aggregate mass was observed. […] Thereafter, in the same manner as in Example 1, the survival rate was calculated and the presence or absence of a cell aggregate mass was observed. […]

Data set [2] relates to hAT-MSC P3 and hBM-MSC P3. The data set is described as follows: Cell morphology, culture after standing and survival, results not separated by cell type. The format is cell-based, human. Particulars: trehalose in HESPANDER; 36 hr (Example 6). As for the experimental part: The cells obtained by passaging hAT-MSCs and hBM-MSCs three times (hAT-MSC P3 and hBM-MSC P3) were plated on 10-cm dishes. The cells were washed three times with 5-ml PBS(−) per 10-cm dish, and detached by treating with 1-ml trypsin-EDTA (0.25% trypsin, 1 mM EDTA·4Na) for 20 sec into a single-cell state. […] After standing at room temperature (about 25° C.) for 240 min or 24 hr, the survival rate of the cells was measured, and the cell aggregation and morphology were observed. Furthermore, after standing for 240 min or 24 hr, the cells were further cultured for 12 hr and the cell morphology was observed.
hAT-MSCs and hBM-MSCs were passaged three times and the obtained cells (hAT-MSCs P3 and hBM-MSCs P3) were plated on 10 cm-dishes. The cells were washed three times with 5-ml PBS(−) per 10-cm dish, and detached by treating with 1-ml trypsin-EDTA (0.25% trypsin, 1 mM EDTA·4Na) for 20 sec into a single-cell state. The obtained cells (hAT-MSCs P3, 4.25×10^5 cells; survival rate, 97.5%: hBM-MSCs P3, 5.0×10^5 cells; survival rate, 98.2%) were transferred to a 15-ml FALCON tube, recovered by centrifugation, washed twice with PBS(−), and suspended in the following composition solution (100 μL). After standing at room temperature (about 25° C.) for 8 hr or 36 hr, the survival rate of the cells was measured and the cell aggregation was observed.

Data set [3] deals with hAT-MSCs P8 and hBM-MSCs P6. Description: Survival rate, cell aggregation and floating after standing for 1 hr (Example 7). The format is cell-based, human. Particulars: about 25° C. How it is done: hAT-MSCs and hBM-MSCs were passaged 6 or 8 times and the obtained cells (hAT-MSCs P8 and hBM-MSCs P6) were plated on 10 cm-dishes. The cells were washed three times with 5-ml HESPANDER (KYORIN Pharmaceutical Co., Ltd.) per 10-cm dish, and detached by treating with 1-ml trypsin-EDTA (0.25% trypsin, 1 mM EDTA·4Na) for 20 sec into a single-cell state. The obtained cells (hAT-MSCs P8, 2.4×10^6 cells; hBM-MSCs P6, 2.3×10^6 cells) were transferred to a 15-ml FALCON tube, recovered by centrifugation, and suspended in the following composition solution. After standing at room temperature (about 25° C.) for 1 hr, the survival rate of the cells was measured and the cell aggregation was observed.

One molecule from patent US10087421B2, “Stem cell suspension” (OTSUKA PHARMACEUTICAL FACTORY, INC., priority 2010, dated 2018) can be followed below.

Structures are written as SMILES.

`OC[C@H]1O[C@H](O[C@H]2O[C@H](CO)[C@@H](O)[C@H](O)[C@H]2O)[C@H](O)[C@@H](O)[C@@H]1O` [trehalose]: in data set [1], the “trehalose concentration at which a stem cell aggregation suppressive effect is exhibited” value is reported as “not less than 15.1 mg/ml” and the “trehalose concentration at which the stem cells float stably” value is “at least 15.1 mg/ml”. Besides, the “trehalose concentration suggested to be preferable to increase the cell survival rate” value in data set [2] was “not more than 181.2 mg/mL”. In data set [3], the “cell aggregation suppressive effect” value was “observed”, the cell floating effect result is listed as “observed” and the “protrusion from the cell / on the cell surface” value is “suppressed”. Also, the cell survival rate result in data set [3] (added to HESPANDER) was “higher than by adding HESPANDER (H) alone”. Besides, the “effect on the cytotoxicity of fucoidan” value in data set [3] (trehalose with 10 μg/ml fucoidan in HESPANDER) was “tendency to suppress the cytotoxicity of fucoidan”.
